The source of these data is paper PMC5376326, “Inhibition of ANO1 by luteolin and its cytotoxicity in human prostate cancer PC-3 cells” (PLoS ONE, 2017).

pIC50: −log10 of the molar value. “And” between values parts separate entries of the source, which are not always exact repeats. Equal values may be shown once.

The target of assay [1] is T1, ANO1 (Homo sapiens, UniProt Q5XXA6).
T1 construct: PC-3 prostate cancer cells expressing high levels of ANO1 endogenously; endogenous in cells; host or cells: PC-3 cells (clones with high ANO1 expression; stably transfected only with the YFP halide sensor)
T1 sequence (Q5XXA6 1-986): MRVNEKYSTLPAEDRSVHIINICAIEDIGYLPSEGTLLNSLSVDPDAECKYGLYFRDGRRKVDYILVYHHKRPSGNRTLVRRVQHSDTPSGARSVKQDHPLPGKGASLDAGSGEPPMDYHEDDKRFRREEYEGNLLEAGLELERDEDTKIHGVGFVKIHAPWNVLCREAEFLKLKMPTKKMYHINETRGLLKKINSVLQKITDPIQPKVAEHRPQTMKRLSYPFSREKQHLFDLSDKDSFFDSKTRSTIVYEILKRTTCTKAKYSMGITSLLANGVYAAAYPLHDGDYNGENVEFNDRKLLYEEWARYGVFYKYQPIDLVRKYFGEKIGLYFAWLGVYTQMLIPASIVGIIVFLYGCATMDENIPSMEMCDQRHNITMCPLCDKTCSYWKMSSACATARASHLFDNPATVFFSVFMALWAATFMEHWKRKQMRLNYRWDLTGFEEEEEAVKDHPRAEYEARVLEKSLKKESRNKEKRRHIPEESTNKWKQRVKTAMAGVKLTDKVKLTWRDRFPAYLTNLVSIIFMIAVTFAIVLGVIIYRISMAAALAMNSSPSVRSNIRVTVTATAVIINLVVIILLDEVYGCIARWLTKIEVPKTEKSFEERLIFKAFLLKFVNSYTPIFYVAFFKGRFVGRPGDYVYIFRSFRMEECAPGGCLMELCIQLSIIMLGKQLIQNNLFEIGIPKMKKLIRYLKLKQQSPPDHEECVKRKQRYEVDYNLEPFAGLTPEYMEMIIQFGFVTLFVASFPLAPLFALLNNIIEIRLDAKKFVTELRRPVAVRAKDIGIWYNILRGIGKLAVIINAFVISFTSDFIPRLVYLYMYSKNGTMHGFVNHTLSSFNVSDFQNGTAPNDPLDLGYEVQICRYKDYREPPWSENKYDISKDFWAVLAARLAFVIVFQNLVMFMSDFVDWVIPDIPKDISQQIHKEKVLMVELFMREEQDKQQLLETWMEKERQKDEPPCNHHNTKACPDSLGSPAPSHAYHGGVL
Briefly: YFP quenching assay of ANO1 activity in PC-3 cells. The conditions noted are these: PC-3 cells expressing high levels of ANO1; indicated concentrations. It is filed as cell-based. How it is done: Initial iodide influx rate was determined from the initial slope of fluorescence decrease, by nonlinear regression, following infusion of iodide with ATP.

The test system of assay [2] is ANO1. The assay can be described thus: Immunoblot of ANO1 protein levels in PC-3 cells. It is filed as cell-based, human. As to the method:
Immunoblotting was performed as described previously. FRT and PC-3 cells were lysed with cell lysis buffer (50 mM Tris-HCl (pH 7.4), 1% Nonidet P-40, 0.25% sodium deoxycholate, 150 mM NaCl, 1 mM EDTA, 1 mM Na3VO4, and protease inhibitor mixture). Whole cell lysates were centrifuged at 15,000 g for 10 min at 4°C to remove the cell debris, and supernatant protein was separated by 4–12% Tris-glycine precast gel (KOMA BIOTECH, Seoul, Korea) and then transferred onto PVDF membrane (Millipore, Billerica, MA). Membrane was blocked with 5% non-fat skim milk in Tris-buffered saline including 0.1% Tween 20 (TBST) for 1 hour at room temperature. The membrane was then incubated overnight with primary ANO1 antibody (1:500 dilution, ab64085; Abcam Inc., Cambridge, MA). After washing three times with TBST, the blot was further incubated for 60 min at room temperature with an anti-rabbit secondary antibody (Santa Cruz Biotechnology, CA). The membrane was then washed three times with TBST and then visualized using the ECL Plus western blotting detection system (GE Healthcare, NJ).
(In general: A western blot detects proteins with antibodies after separation by electrophoresis.)

Assay [3] deals with T2, ANO1 (Homo sapiens, UniProt Q5XXA6, DEL476-501).
T2 sequence (Q5XXA6 with tags, fused parts or gaps isoform Q5XXA6-5 DEL539-564): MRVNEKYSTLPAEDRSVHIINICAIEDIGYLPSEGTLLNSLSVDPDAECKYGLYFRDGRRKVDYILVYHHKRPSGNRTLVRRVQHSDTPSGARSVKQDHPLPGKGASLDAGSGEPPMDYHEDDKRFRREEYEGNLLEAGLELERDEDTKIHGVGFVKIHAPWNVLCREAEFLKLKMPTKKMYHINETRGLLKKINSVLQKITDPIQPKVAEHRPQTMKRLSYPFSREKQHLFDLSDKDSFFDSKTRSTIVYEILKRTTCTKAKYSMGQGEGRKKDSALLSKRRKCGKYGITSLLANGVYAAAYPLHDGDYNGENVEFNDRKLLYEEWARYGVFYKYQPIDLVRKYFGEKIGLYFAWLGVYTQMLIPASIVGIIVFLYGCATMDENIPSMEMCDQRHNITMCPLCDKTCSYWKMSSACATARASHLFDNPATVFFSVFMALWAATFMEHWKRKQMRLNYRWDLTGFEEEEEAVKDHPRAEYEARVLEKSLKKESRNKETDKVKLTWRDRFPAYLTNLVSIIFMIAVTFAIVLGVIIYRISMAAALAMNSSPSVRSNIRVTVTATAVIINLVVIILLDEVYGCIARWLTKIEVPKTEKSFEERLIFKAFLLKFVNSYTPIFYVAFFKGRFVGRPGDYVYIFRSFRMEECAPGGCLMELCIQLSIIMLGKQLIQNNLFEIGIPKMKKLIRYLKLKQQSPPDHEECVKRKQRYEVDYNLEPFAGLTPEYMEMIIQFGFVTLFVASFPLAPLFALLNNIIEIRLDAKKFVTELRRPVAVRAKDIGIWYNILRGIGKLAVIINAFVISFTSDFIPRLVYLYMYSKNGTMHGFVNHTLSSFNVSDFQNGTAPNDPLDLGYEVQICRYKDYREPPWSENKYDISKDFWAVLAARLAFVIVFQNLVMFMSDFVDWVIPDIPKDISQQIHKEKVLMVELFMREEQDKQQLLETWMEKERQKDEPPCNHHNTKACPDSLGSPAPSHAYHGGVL
The assay can be described thus: Apical membrane (short-circuit) current in ANO1-expressing FRT cells. Type of assay: cell-based. The conditions noted are these: for Block of ANO1 chloride channel current: pretreated 20 min, 100 μM ATP, FRT-ANO1 cells. How it is done:
Snapwell inserts containing ANO1-expressing FRT cells were mounted in Ussing chambers (Physiologic Instruments, San Diego, CA). The basolateral bath was filled with HCO3^--buffered solution and the apical bath was filled with a half-Cl^- solution. The basolateral membrane was permeabilized with 250 μg/mL amphotericin B. The cells were bathed for a 20 min stabilization period and aerated with 95% O2 / 5%CO2 at 37°C. Luteolin and kaempferol were applied to the apical and basolateral bath solution and then ATP was added to the apical bath solution to induce intracellular calcium increase. Apical membrane currents were measured with an EVC4000 Multi-Channel V/I Clamp (World Precision Instruments, Sarasota, FL) and recorded using PowerLab 4/35 (AD Instruments, Castle Hill, Australia). Data were collected and analyzed with ADInstruments acquisition software Labchart Pro 7 software. The sampling rate was 4 Hz.

`O=c1c(O)c(-c2ccc(O)cc2)oc2cc(O)cc(O)c12` [Kaempferol]: the “Inhibition of ANO1 activity” value in assay [1] is “significantly inhibited”. Moreover, the “Effect on ANO1 protein levels” value in assay [2] (PC-3 cells expressing high levels of ANO1, 24 hour, indicated concentrations) is on record as “did not affect”. Moreover, the “Block of ANO1 chloride channel current” value in assay [3] (10 μM) stood at 36.2 ± 3.0%; in assay [3] (30 μM), 55.0 ± 4.1%; in assay [3] (100 μM), 89.3 ± 2.0%.

For orientation: pIC50 means the IC50 on a negative log10 scale, so that one unit is a factor of ten. For `O=c1cc(-c2ccc(O)c(O)c2)oc2cc(O)cc(O)c12` [luteolin], in assay [1], the “Inhibition of ANO1 activity” value is “potently inhibited”. In addition, the “Decrease of ANO1 protein levels” value in assay [2] (10 μM, 24 hour, PC-3 cells expressing high levels of ANO1) stood at 41.2 ± 1.5%; in assay [2] (30 μM, 24 hour, PC-3 cells expressing high levels of ANO1), 63.1 ± 5.7%. Further, the “Time-dependent change of ANO1 protein levels” value in assay [2] (30 μM, PC-3 cells) was “significantly decreased in a time-dependent manner”. The “Block of PAR2-AP-triggered ANO1 activation” value in assay [3] (100 μM, 20 min pretreatment, PAR2-AP 50 μM) is reported as “almost completely blocked”. Also, the “Inhibition of ATP-induced ANO1 activation (apical current)” value in assay [3] (100 μM, ATP 100 μM) is given as “almost completely inhibited”. In assay [3] (FRT cells expressing ANO1, activated by 100 μM ATP, read-out: IC50, ANO1 chloride current (apical membrane current)), the pIC50 is 5.01 and ~5.00. In addition, the “Reversibility of ANO1 inhibition” value in assay [3] (after washing 3 times for 5 min each, re-activation by 50 μM PAR2-AP) is on record as “reversibly inhibited”.
